Data on seven compounds can be found in publication PMC6282620, “Structural and biochemical characterization of Plasmodium falciparum Hsp70‐x reveals functional versatility of its C‐terminal EEVN motif” (Proteins, 2018).

Read-outs that look alike come from different tables or passages of the source. Where no end group is shown, it is not given here.

Experiment [1] has as its target T1, PfHsp70‐x (Plasmodium falciparum, UniProt K7NTP5). Briefly: SPR peptide substrate binding kinetics. To be noted: mean ± SD; for ka association rate constant / Kd: SPR, PfHsp70‐x ligand; for koff: read-out: kd dissociation rate constant, SPR, PfHsp70‐x ligand; for Kd: K D, peptide 1.25-20 nM, 25°C, PBS-Tween. The method, then:
(§1) Association of PfHsp70‐x/PfHsp70‐xT with synthetic peptides that represent typical Hsp70 substrates26 was investigated using surface plasmon resonance (SPR) analysis as previously described.22, 24 Briefly, PfHsp70‐x and PfHsp70‐xT were immobilized onto respective ProteOn GLC sensor chips as ligands. PfHsp70‐x, PfHsp70‐xT (as ligands) were immobilized at concentrations of 0.5 and 1 μg mL^−1. At these concentrations we achieved 190 response units (RU) for PfHsp70‐x, and 193 RU for PfHsp70‐xT per immobilization surface. The assay was conducted at 25°C. Filter sterilized and degassed PBS‐Tween was used as the running buffer. As analytes, aliquots of peptides, representing typical Hsp70 substrates (NRLLTG, NRNNTG, ALLLMYRR, ANNNMYRR, GFRVVLMYRF, GFRNNNMYRF) were prepared at final concentration of 1.25, 2.50, 5, 10, and 20 nM and were injected at 50 μL min^−1 in each horizontal channel. Association was allowed for 2 minutes, dissociation was monitored for 10 minutes. The assay was repeated in the presence of nucleotides 2 mM ATP/ADP. The final data were determined by substracting the baseline RU (buffer containing ATP/ADP without analyte peptide). The association rate constant, dissociation rate constant and equilibrium constant data were analyzed using ProteOn Manager software version 3.1.0.6. by concatenating the responses of the analyte at variable concentrations.

Experiment [2] concerns the target T2, PfHsp70‐xT (Plasmodium falciparum, UniProt K7NTP5). Briefly: SPR peptide substrate binding kinetics. The arrangement: ka association rate constant: scale not given here. To be noted: mean ± SD; for ka association rate constant / Kd: SPR, PfHsp70‐xT ligand; for koff: read-out: kd dissociation rate constant, SPR, PfHsp70‐xT ligand; for Kd: K D, peptide 1.25-20 nM, 25°C, PBS-Tween. The method, then:
as §1

Experiment [3] deals with T1, PfHsp70‐x. Kind of experiment: SPR nucleotide (ATP) binding assay. Conditions: SPR steady state, PfHsp70‐x immobilized as ligand, ATP 1.25-20 nM, 25°C, PBS-Tween pH 7.4; mean ± SD of three independent assays; read-out: K D (ATP analyte). The method, then:
(§2) The nucleotide binding assay was conducted at 25°C using a BioRad ProteOn XPR36 surface plasmon resonance (SPR) as previously described.22 The assay buffer was constituted of filter sterilized and degassed PBS‐Tween [([…], 1.46 mM KH2PO4, 137 mM NaCl, 3 mM KCl, 0.005% [v/v] Tween 20 and 20 mM EDTA; pH 7.4)]. PfHsp70‐x (1 μg mL^−1) and its truncated version, PfHsp70‐xT (1 μg mL^−1) were immobilized onto respective ProteOn HTE sensor chips as ligands. At these concentrations, we achieved 190 response units (RU) for PfHsp70‐x and 195 RU for PfHsp70‐xT per immobilization surface. Varying concentrations (1.25 nM, 2.50 nM, 5 nM 10 nM and 20 nM) of the analyte (ATP) were injected at a flow rate of 100 μL min^−1 in each horizontal channel and association and dissociation was allowed to occur and monitored for 10 minutes. Steady state equilibrium constant data was processed and analyzed using ProteOn Manager software version 3.1.0.6.

For experiment [4], the target named is T2, PfHsp70‐xT. Briefly: SPR nucleotide (ATP) binding assay. To be noted: SPR steady state, PfHsp70‐xT immobilized as ligand, ATP 1.25-20 nM, 25°C, PBS-Tween pH 7.4; mean ± SD of three independent assays; read-out: K D (ATP analyte). Here is the method: as §2
The target of experiment [5] is T1, PfHsp70‐x. Briefly: SPR analysis of association with hHop. It counts as binding. To be noted: 5 mM ATP versus no nucleotide / ADP. The method, then: The direct association between PfHsp70‐x and hHop was further explored using SPR analysis. The assay was conducted at 25°C using filter sterilized and degassed PBS‐Tween running buffer [(8 mM Na2HPO4, 1.46 mM KH2PO4, 137 mM NaCl, 3 mM KCl, 0.005% [v/v] Tween 20 and 20 mM EDTA; pH 7.4)] as previously described.22, 24 The recombinant PfHsp70‐x /PfHsp70‐xT (1 μg mL^−1) and BSA (as control) were immobilized onto respective ProteOn GLC sensor chips as ligands. As analyte, the recombinant hHop at varying concentrations (125, 250, 500, 1 000, and 2 000 nM) was passed over the immobilized proteins. The analytes were injected at flow rate of 50 μL min^−1 and association and dissociation occurred in a period of 10 minutes. The assay was then repeated in the presence of 5 mM ADP/ATP. The association rate constant, dissociation rate constant, and equilibrium constant data were processed and analyzed using ProteOn Manager software version 3.1.0.6 involving concatenating the responses of the analyte at variable concentrations.
For orientation: SPR reads the build-up and loss of mass on a sensor chip optically.

In experiment [6] the target is T1, PfHsp70‐x. Briefly: ELISA of direct association with hHop. Conditions: Hop analyte 0.137-300 nM. It counts as binding. Here is the method: The direct association of hHop with PfHsp70‐x was further confirmed using an enzyme linked immunosorbent assay (ELISA) as previously described27 with minor modifications. Briefly, recombinant PfHsp70‐x/PfHsp70‐xT proteins and control BSA (5 μg/mL) were added to wells overnight in 50 mM NaHCO3, pH 9.3 at 4°C. The wells were washed at least three times with TBST, between each subsequent step. After blocking with 1% BSA in TBST, recombinant PfHop protein (analyte) was added in serial dilutions (0.137–300 nM) in the presence or absence of nucleotides (5 mM ATP/ADP) for 2 hours at 25°C. Then the wells were incubated with α‐PfHop primary antibody for 1 hour. Next, primary antibody was incubated with HRP conjugated goat raised anti‐rabbit IgG for 1 hour. HRP development was assayed with TMB substrate solution (Bio‐Scientific, USA) and monitored at 370 nm using a SpectraMax M3 microplate reader (Molecular Devices, USA) every 5 minutes for 30 minutes.

The target in experiment [7] is T1, PfHsp70‐x. Briefly: Slot blot assay of direct association with hHop. Format: binding. The method, then:
(§3) Recombinant forms of hHop, control (bovine serum albumin), PfHsp70‐x (positive control) were immobilized onto the nitrocellulose membrane using Bio‐Dot SF apparatus as previously described 22. The proteins were immobilized at final amounts of 2, 4, and 8 μg each respectively per lane. The membrane was blocked with 5% (w/v) fat‐free milk in TBST (50 mM Tris‐HCl pH 7.5, 150 mM NaCl, 0.1% [v/v] Tween 20) and overlaid with either PfHsp70‐x/PfHsp70‐xT (10 μg mL^−1) in the absence and presence of 5 mM ATP/ADP and incubated overnight at 4°C, followed by three washes with TBST for 15 minutes. The nucleotide concentrations were maintained in the subsequent steps of the protocol. Protein was detected by Western blot technique using rabbit raised α‐PfHsp70‐x [1:2000] (Genscript, USA) as primary antibodies and goat raised α‐rabbit IgG secondary HRP‐conjugated antibody [1:4000] (Sigma–Aldrich, USA). Imaging of the protein bands was conducted using the ECL kit as per manufacturer's instructions. The images were captured using ChemiDoc imaging system (Bio‐Rad, USA).

Experiment [8] addresses T2, PfHsp70‐xT. Briefly: Slot blot assay of direct association with hHop. Format: binding. To be noted: hHop immobilized 2, 4, 8 μg, overlaid with PfHsp70‐xT 10 μg/mL. The method, then:
as §3

T1 sequence (K7NTP5 entry or part of it): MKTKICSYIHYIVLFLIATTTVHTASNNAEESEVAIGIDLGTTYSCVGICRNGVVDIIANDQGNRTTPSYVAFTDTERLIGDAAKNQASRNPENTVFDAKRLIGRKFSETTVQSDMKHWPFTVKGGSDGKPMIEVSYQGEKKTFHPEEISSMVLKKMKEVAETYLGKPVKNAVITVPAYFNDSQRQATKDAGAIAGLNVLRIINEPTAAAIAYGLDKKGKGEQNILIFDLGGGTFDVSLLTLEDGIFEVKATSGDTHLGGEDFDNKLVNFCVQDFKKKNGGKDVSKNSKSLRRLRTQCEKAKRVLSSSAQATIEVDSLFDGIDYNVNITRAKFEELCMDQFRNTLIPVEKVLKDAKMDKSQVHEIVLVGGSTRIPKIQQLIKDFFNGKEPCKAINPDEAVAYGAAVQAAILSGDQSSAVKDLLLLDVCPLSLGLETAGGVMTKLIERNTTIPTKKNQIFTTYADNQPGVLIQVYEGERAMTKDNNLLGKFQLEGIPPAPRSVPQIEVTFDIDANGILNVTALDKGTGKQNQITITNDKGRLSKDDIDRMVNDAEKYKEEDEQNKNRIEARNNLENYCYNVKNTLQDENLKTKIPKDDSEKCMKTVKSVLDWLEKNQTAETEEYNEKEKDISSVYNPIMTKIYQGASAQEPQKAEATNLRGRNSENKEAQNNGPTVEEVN
T2 sequence (K7NTP5 entry or part of it): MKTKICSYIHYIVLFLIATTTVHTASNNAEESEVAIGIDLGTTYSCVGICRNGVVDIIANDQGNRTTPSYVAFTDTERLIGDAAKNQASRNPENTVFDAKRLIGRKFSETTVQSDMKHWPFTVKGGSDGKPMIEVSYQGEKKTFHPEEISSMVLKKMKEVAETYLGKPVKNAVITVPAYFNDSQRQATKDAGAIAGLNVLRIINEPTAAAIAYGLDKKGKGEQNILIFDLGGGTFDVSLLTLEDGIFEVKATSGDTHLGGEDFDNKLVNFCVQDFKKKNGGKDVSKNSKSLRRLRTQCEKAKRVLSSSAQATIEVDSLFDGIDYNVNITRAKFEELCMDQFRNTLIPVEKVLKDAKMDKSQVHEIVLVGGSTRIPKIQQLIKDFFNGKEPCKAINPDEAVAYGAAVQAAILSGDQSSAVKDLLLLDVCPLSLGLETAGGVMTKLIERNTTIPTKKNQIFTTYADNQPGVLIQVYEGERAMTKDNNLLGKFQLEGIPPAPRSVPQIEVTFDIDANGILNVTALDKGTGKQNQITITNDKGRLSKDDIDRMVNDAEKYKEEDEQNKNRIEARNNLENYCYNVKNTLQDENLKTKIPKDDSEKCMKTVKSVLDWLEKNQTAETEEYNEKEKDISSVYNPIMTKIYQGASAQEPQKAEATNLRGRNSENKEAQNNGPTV

As for NRLLTG [NRLLTG, reference compound], the “ka association rate constant” value is listed as 1.62 (± 0. 22) 1/ Ms in experiment [1] (+ ADP), 1.21 (± 0.23) 1/ Ms in experiment [1] (+ ATP), 6.0 (± 0.51) 1/ Ms in experiment [2] (+ ADP) and 3.15 (± 0.31) 1/ Ms in experiment [2] (no nucleotide). The koff in experiment [1] (+ ADP) is 1.01e-05 s⁻¹; in experiment [1] (+ ATP), 1.01e-05 s⁻¹; in experiment [1] (no nucleotide), 9.97e-06 s⁻¹; in experiment [2] (+ ADP), 1e-05 s⁻¹; in experiment [2] (+ ATP), 0.000161 s⁻¹; in experiment [2] (no nucleotide) it was 8.67e-06 s⁻¹.

With `Nc1ncnc2c1ncn2[C@@H]1O[C@H](COP(=O)(O)OP(=O)(O)OP(=O)(O)O)[C@@H](O)[C@H]1O` [ATP], the Kd in experiment [3] came out at 110 nM; in experiment [4], 11200 nM.

Compound ANNNMYRR [ANNNMYRR] returned a Kd in experiment [1] (no nucleotide (NN)) of 2.21 nM.

Turning to “GFTVVLMYRF [GFTVVLMYRF, reference compound]”, the koff in experiment [1] (+ ADP) amounted to 1e-05 s⁻¹; in experiment [1] (+ ATP), 0.000117 s⁻¹; in experiment [1] (no nucleotide), 1.03e-05 s⁻¹.

As for NRNNTG [NRNNTG], the Kd amounted to 4.31 nM in experiment [1] (2 mM ADP), 6.91 nM in experiment [1] (no nucleotide (NN)), 1.69 nM in experiment [2] (2 mM ADP) and 7.92 nM in experiment [2] (no nucleotide (NN)). The “ka association rate constant” value in experiment [1] (+ ADP) was 2.55 (± 0.23) 1/ Ms; in experiment [1] (+ ATP), 7.33 (± 0.22) 1/ Ms; in experiment [1] (no nucleotide), 2.43 (± 0.45) 1/ Ms; in experiment [2] (+ ADP), 5.96 (±0.1) 1/ Ms; in experiment [2] (+ ATP), 9.37 (±0.17) 1/ Ms; in experiment [2] (no nucleotide) it was 3.52 (± 0.18) 1/ Ms. For the same compound, the koff amounted to 1.03e-07 s⁻¹ in experiment [1] (+ ADP); 1.01e-06 s⁻¹ in experiment [1] (+ ATP); 9.49e-07 s⁻¹ in experiment [1] (no nucleotide); 1.01e-08 s⁻¹ in experiment [2] (+ ADP); 1.01e-05 s⁻¹ in experiment [2] (+ ATP); 2.79e-08 s⁻¹ in experiment [2] (no nucleotide).

As to “hHop: recombinant N-terminally His-tagged human Hsp70‐Hsp90 organizing protein”, the “inhibition of the PfHsp70‐x-hHop association by ATP” value in experiment [5] is listed as “at least tenfold”. For the same compound, the “association with hHop in ELISA” value in experiment [6] (PfHsp70‐x immobilized 5 μg/mL, 2 h, 25°C, no nucleotide) was “occurs in a concentration dependent form”; in experiment [6] (PfHsp70‐x immobilized, 5 mM ADP), “occurs in a concentration dependent form”; in experiment [6] (PfHsp70‐x immobilized, 5 mM ATP), “inhibited the association”. For the same compound, the “association with hHop in slot blot” value was “occur in a concentration‐dependent manner” in experiment [7] (hHop immobilized 2, 4, 8 μg, overlaid with PfHsp70‐x 10 μg/mL, no nucleotide); “appeared to enhance the association” in experiment [7] (overlaid with PfHsp70‐x, 5 mM ADP); “abrogated the interaction” in experiment [7] (overlaid with PfHsp70‐x, 5 mM ATP); “not observed” in experiment [8].

In the case of GFTNNNMYRF [GFTNNNMYRF], the Kd in experiment [1] (2 mM ADP) was 6.25 nM; in experiment [1] (no nucleotide (NN)), 2.4 nM; in experiment [2] (2 mM ADP), 1.4 nM; in experiment [2] (no nucleotide (NN)) it was 2.2 nM.
